In patent US20070166187A1, “Stabilization of paricalcitol using chlorobutyl or chlorinated butyl stoppers” (priority 2006, published 2007):

How the values were obtained:
[1] = accelerated stability model: paricalcitol solution in stoppered vials or ampule, inverted, 80° C., 21 days, HPLC; type: physicochemical
Method: In order to effectively evaluate different container closures, an accelerated stability model was devised, wherein vials that contained a paricalcitol solution and were sealed with 27 different types of stoppers were stored inverted and protected from light at 80° C. for 21 days. The vials were different only in the composition of the stoppers which were obtained from commercially available sources. Throughout the 21 day trial, samples were removed at day 2, 7, 14 and 21, and the contents of the vial were analyzed by HPLC (High Pressure Liquid Chromatography) to determine the concentration of the test compound paricalcitol compared to a control sample of known concentration. The control sample consisted of a paricalcitol injection solution stored in a sealed glass ampule which maintained 100% potency for the entirety of the test (21 days). The relative concentration of the paricalcitol in the vials stored with test stoppers compared to the control sample was measured indicating stability of the paricalcitol over the 21 day test. In addition, the accelerated shelf-life study conditions were conducted on an identical vial wherein the headspace of the vials was blanketed with argon gas above the paricalcitol solutions prior to sealing with the appropriate stopper. The argon blanketed sample containing a lower concentration of oxygen was compared to the control sample to determine the stability of the test compound in a more inert atmosphere. The 80° C. 21 day rapid screening method of solutions of paricalcitol in the presence of different stoppers was designed to predict the stability of the test compound (i.e., paricalcitol) relative to the containers that are used in the current marketed product. The paricalcitol solution preparation: (5 mcg/mL in water-propylene glycol-ethanol/50:30:20; as defined under USP28-NF23 Page 1471 guidelines) contains not less than 90.0 percent and not more than 110.0 percent of the labeled amount of paricalcitol (C27H44O3). 1 mL of solution was added to a 5 mL or 10 mL (for 20 mm stopper) Type 1 glass vial. The vials were sealed with the various types of stoppers. In order to evaluate the effect of oxygen, a second series of identical vials was blanketed with argon prior to capping with the stoppers. All of the samples were stored inverted in a light-protected, 80° C. oven to obtain maximum contact between solution and the stopper. Ampule samples (with no headspace argon gassing) were prepared and stored along with vials under the same condition to serve as a control. At least 2 samples for each type of stopper were pulled out at 2, 7, 14, and 21 day time points and assayed using HPLC without further dilution. Paricalcitol concentration profiles from the vials containing different composition stoppers were compared to the same solution packaged in ampules. The relative concentration of remaining paricalcitol was plotted over the course of the 21 day test to determine the relative stability of paricalcitol in the presence of the test stopper. Chromatographic system used: The liquid chromatograph was equipped with a 252-nm detector and a 4.6-mm×25-cm column that contains 5-μm packing L1 with a flow rate about 2 mL per minute. […] Separately inject equal volumes (about 100 to 200 μL) of the Standard preparation and the Assay preparation into the chromatograph, record the chromatograms, and measure the responses for the major peaks. Calculate the quantity, in μg, of paricalcitol (C27H44O3) in each mL of the Injection taken by the formula: C(rU/rS), in which C is the concentration, in μg per mL, of paricalcitol in the control standard, calculated on the basis of the content of paricalcitol in the USP Paricalcitol Solution RS; and rU and rS are the paricalcitol peak responses obtained from the test samples and the control standard, respectively. Results Five stability studies were conducted to evaluate the stoppers. […]

[2] = formulation study of the effect of BHT on paricalcitol stability, 35 day 80° C. degradation model; type: physicochemical; settings: no BHT, ampule and vial with 4432/50/Flu/B2-40 stopper, 35 days
Method: BHT is an antioxidant and is often used to protect chemicals and materials from oxidative degradation and is present in several of the stoppers. Levels of BHT were identified in the test samples during the 21 day, 80° C. storage and during a separate 25, 30, and 40° C. stability studies conducted over a 9-month interval. […] To determine, whether or not BHT would enhance the stability or cause degradation of the paricalcitol solution, a formulation study was conducted to evaluate the effect of BHT on the stability of paricalcitol in the Zemplar® formulation with the current stopper using a 35 day 80° C. degradation model. In this study, different amounts of BHT were added to the Zemplar® formulation with concentrations of 0.05, 0.1, 0.5, and 1.0 mcg/mL. The controls consisted of the Zemplar formulation without BHT contained in ampules and vials sealed with either […]-1/FT/B2-40 or the 4432/50/Flu/B2-40 stoppers. […] Therefore, causes not fully understood led to the enhanced stabilization of the paricalcitol solution contained in samples with 4432/50/Flu/B2-40 stoppers.

[3] = commercially available injection vial containing a solution of paricalcitol; cited from earlier work

C[C@H](/C=C/[C@H](C)C(C)(C)O)[C@H]1CC[C@H]2/C(=C/C=C3C[C@@H](O)C[C@H](O)C3)CCC[C@]12C [paricalcitol]
stability with argon headspace gassing ([1]; Study 1, argon headspace, chlorobutyl stoppers versus other stoppers): more stable | concentration of paricalcitol within the vial ([1]; Study 1, without argon headspace, Stopper #8 (Ashland chlorobutyl, Tefzel)): comparable to the sample stored in the ampule | degradation over the 21 day test period ([1]; Study 1, without argon headspace, Stopper #8 (Ashland chlorobutyl, Tefzel) and Stopper #7 (Ashland chlorobutyl, uncoated) versus stoppers #3, 10, 12, 13): least degradation | paricalcitol concentration ([1]; Study 2, West chlorobutyl and Daikyo chlorinated butyl stoppers, 21 days at 80° C.): remained unchanged | concentration of paricalcitol at the 21 day interval ([1]; Study 2, argon headspace, butyl, bromobutyl and POE stoppers compared to chlorobutyl and chlorinated butyl stoppers): still lowest | stability profile ([1]; Study 3, without argon, Ashland 5212 chlorobutyl stoppers with Plasma and Prop coatings): constant stability profiles | performance relative to ampule ([1]; Study 4, West 4432/50 stopper without any barrier coating): performed as well as the ampule sample | concentration of paricalcitol throughout the 21 day test ([1]; Study 4, stoppers consisting of chlorobutyl material): consistently maintained the highest concentration | time point at which potency drop starts ([1]; vial with D777-1/FT/B2-40 stopper (marketed stopper), 80° C.): 7 days | rate of decomposition over the 21 days ([1]; vials sealed with chlorobutyl or chlorinated butyl stoppers, 80° C.): slowest rate of decomposition | paricalcitol concentration [2]: remained constant | current shelf-life [3]: 1 year
